Experimental data as given in patent publication US20260274892A1, “MACROCYCLIC BROAD SPECTRUM ANTIBIOTICS” (RQx Pharmaceuticals, Inc., priority 2017, published 2026).
Where two headings read alike, the source gives them in different places.

Tests used:
[1] = cc_pd bond, Pd(dppf)Cl2·CH2Cl2, acetonitrile
[2] = tested on: Methicillin Resistant Staphylococcus aureus strain USA 200; test: Minimum inhibitory concentration (MIC), CLSI broth micro-dilution, S. aureus; format: cell-based; settings: Staphylococcus aureus, MRSA / USA200; Table 6; MRSA USA 200; cation adjusted Mueller Hinton Broth + 0.002% Tween-80; 35° C., 22 hours
Method in brief: (§1)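 Antibacterial potency is measured as MIC by the CLSI broth dilution method. Bacteria at OD600 0.0005 in Tween-80-supplemented cation-adjusted Mueller Hinton broth face ten twofold compound dilutions for 22 h at 35° C.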

[3] = tested on: Escherichia coli ATCC 25922; test: Minimum inhibitory concentration (MIC), CLSI broth micro-dilution, E. coli; format: cell-based; settings: Escherichia coli, ATCC25922, 22 h, Table 6, cation adjusted Mueller Hinton Broth + 0.002% Tween-80, 35° C.
Method in brief: as §1

Structure (SMILES) | MIC [2] [µM] | MIC [3] [µM] | ring closure, yield of all isomers ([1]; from COC(=O)[C@H](Cc1cc(F)c(OCc2ccccc2)c(B2OC(C)(C)C(C)(C)O2)c1)NC(=O)[C@H](C)NC(=O)[C@H](c1ccc(OCCNC(=O)OC(C)(C)C)c(I)c1)N(C)C(=O)OCc1ccccc1, 20.06 mM, 70.0 °C, 1.5 h) [%] | ring closure, yield of all isomers ([1]; from COC(=O)[C@H](Cc1cc(O)c(OC)c(B2OC(C)(C)C(C)(C)O2)c1)NC(=O)[C@H](C)NC(=O)[C@H](c1ccc(OC)c(I)c1)N(C)C(=O)OC(C)(C)C, 65.0 °C, 2.0 h) [%]
COC(=O)[C@@H]1Cc2cc(F)c(OCc3ccccc3)c(c2)-c2cc(ccc2OCCNC(=O)OC(C)(C)C)[C@H](N(C)C(=O)OCc2ccccc2)C(=O)N[C@@H](C)C(=O)N1 |  |  | 31 | 
Cc1nc(-c2ccc(C(C)(C)C)cc2)ccc1C(=O)N[C@@H](CCN)C(=O)N(C)[C@@H]1C(=O)N[C@@H](C)C(=O)N[C@H](C(=O)NCC#N)Cc2ccc(O)c(c2)-c2cc1ccc2OCCN (racemic) [Compound 526, rac-(8S,11S,14S)-18-(2-aminoethoxy)-N-(cyanomethyl)-3-hydroxy-11-methyl-14-[methyl-[rac-(2S)-4-amino-2-[[6-(4-tert-butylphenyl)-2-methyl-pyridine-3-carbonyl]amino]butanoyl]amino]-10,13-dioxo-9,12-diazatricyclo[13.3.1.12,6]icosa-1(18),2(20),3,5,15(19),16-hexaene-8-carboxamide] | 0.047 | 0.33 |  | 
COC(=O)[C@@H]1Cc2cc(O)c(OC)c(c2)-c2cc(ccc2OC)[C@H](N(C)C(=O)OC(C)(C)C)C(=O)N[C@@H](C)C(=O)N1 |  |  |  | 17.1

Second part, led by results:

MIC [2] [µM] | MIC [3] [µM] | Structure (SMILES) | ring closure, yield of all isomers ([1]; from COC(=O)[C@H](Cc1cc(F)c(OCc2ccccc2)c(B2OC(C)(C)C(C)(C)O2)c1)NC(=O)[C@H](C)NC(=O)[C@H](c1ccc(OCCNC(=O)OC(C)(C)C)c(I)c1)N(C)C(=O)OCc1ccccc1, 20.06 mM, 70.0 °C, 1.5 h) [%] | ring closure, yield of all isomers ([1]; from COC(=O)[C@H](Cc1cc(O)c(OC)c(B2OC(C)(C)C(C)(C)O2)c1)NC(=O)[C@H](C)NC(=O)[C@H](c1ccc(OC)c(I)c1)N(C)C(=O)OC(C)(C)C, 65.0 °C, 2.0 h) [%]
0.016 | 0.19 | CNc1nc(-c2ccc(C(C)(C)C)cc2)nc(C)c1C(=O)N[C@@H](CCN)C(=O)N(C)[C@@H]1C(=O)N[C@@H](C)C(=O)N[C@H](C(=O)NCC#N)Cc2ccc(OCCN)c(c2)-c2cc1ccc2OCCN (racemic) [Compound 425, rac-(8S,11S,14S)-3,18-bis(2-aminoethoxy)-N-(cyanomethyl)-11-methyl-14-[methyl-[rac-(2S)-4-amino-2-[[2-(4-tert-butylphenyl)-4-methyl-6-(methylamino)pyrimidine-5-carbonyl]amino]butanoyl]amino]-10,13-dioxo-9,12-diazatricyclo[13.3.1.12,6]icosa-1(18),2(20),3,5,15(19),16-hexaene-8-carboxamide] |  | 
0.061 | 0.24 | Cc1nc(-c2ccc(C(C)(C)C)cc2)nc(C)c1C(=O)N[C@@H](CCN)C(=O)N(C)[C@@H]1C(=O)N[C@@H](C)C(=O)N[C@H](C(=O)NCC#N)Cc2ccc(O)c(c2)-c2cc1ccc2OCCN (racemic) [Compound 254, rac-(8S,11S,14S)-18-(2-aminoethoxy)-N-(cyanomethyl)-3-hydroxy-11-methyl-14-[methyl-[rac-(2S)-4-amino-2-[[2-(4-tert-butylphenyl)-4,6-dimethyl-pyrimidine-5-carbonyl]amino]butanoyl]amino]-10,13-dioxo-9,12-diazatricyclo[13.3.1.12,6]icosa-1(18),2(20),3,5,15(19),16-hexaene-8-carboxamide] |  | 
0.012 | 0.13 | Cc1nc(-c2ccc(CC(C)C)cc2)nc(C)c1C(=O)N[C@@H](CCN)C(=O)N(C)[C@@H]1C(=O)N[C@@H](C)C(=O)N[C@H](C(=O)NCC#N)Cc2ccc(OCCN)c(c2)-c2cc1ccc2OCCN (racemic) [Compound 258, rac-(8S,11S,14S)-3,18-bis(2-aminoethoxy)-N-(cyanomethyl)-11-methyl-14-[methyl-[rac-(2S)-4-amino-2-[[2-(4-isobutylphenyl)-4,6-dimethyl-pyrimidine-5-carbonyl]amino]butanoyl]amino]-10,13-dioxo-9,12-diazatricyclo[13.3.1.12,6]icosa-1(18),2(20),3,5,15(19),16-hexaene-8-carboxamide] |  | 
